Usually EC50 stands for the concentration giving half of the maximal effect. The term half-life denotes the time needed for the level to fall by half in the phase considered. For orientation: solubility means the dissolved amount per volume that the medium holds. A low value points to little dissolved substance.

Each structure is given as a SMILES string. Activity calls are given as the source filed them.

Data set [1] has as its system Trypanosoma brucei brucei. Kind of data set: Trypanocidal activity against Trypanosoma brucei brucei 427 assessed as reduction in parasitemia at 2.2 uM incubated for 4 days by clonal dilution based CellTiter-Glo assay. The class given is functional, organism-based. Conditions: time 4.0 day. In general terms: Cellular ATP, detected with luciferase, serves as a proxy for viable cell number.

Data set [2] concerns Trypanosoma brucei brucei. Kind of data set: Antitrypanosomal activity against Trypanosoma brucei brucei 427 assessed as inhibition of parasite proliferation incubated for 48 hrs by CellTiter-Glo luminescent assay. Conditions: Trypanosoma brucei, 427, 48 h. The class given is functional, organism-based.
Data set [3] in a line: Cytotoxicity against human BJ cells assessed as inhibition of cell growth incubated for 72 hrs by CellTiter-Glo luminescence assay. The class given is toxicity, cell-based.
Data set [4] in a line: Metabolic stability in […] mouse liver microsomes assessed as half-life at 20 uM measured after 2 hrs by UPLC-MS analysis. The class given is ADME, Microsome. A general note: Liver microsomes are a subcellular fraction often used to study metabolism.
The nature of data set [5]: Aqueous solubility of compound in 1-propanol at pH 7.4 incubated for 18 hrs by UV spectrum analysis. The class given is physicochemical. Conditions: for solubility at 18 h: 1-propanol (aqueous, pH 7.4), pH 7.4.
Data set [6] concerns Trypanosoma brucei brucei. Kind of data set: Antitrypanosomal activity against Trypanosoma brucei brucei 427 assessed as inhibition of parasite proliferation at 0.7 to 15000 nM incubated for 48 hrs by CellTiter-Glo luminescent assay. The class given is functional, organism-based. The following applies: dose 0.7-15000 nM.

Turning to `N=C(N)c1ccc(OCCCCCOc2ccc(C(=N)N)cc2)cc1`, in data set [1], the result was Active.
In the case of `Cc1ccc(-c2nc3ccccc3s2)cc1NC(=O)c1cc([N+](=O)[O-])ccc1C#N`, in data set [2], the EC50 was over 9 µM. Further, the concentration for a half-maximal effect (EC50) at 72 h in data set [3] was over 17 µM.
As to `CSc1ccc(Cl)c(C(=O)Nc2cccc(-c3nc4ccccc4s3)c2)c1`, in data set [2], the EC50 was over 33 µM. Besides, the concentration for a half-maximal effect (EC50) at 72 h in data set [3] was over 25 µM.
The corresponding values for `Cc1ccc(-c2nc3ccccc3s2)cc1NC(=O)c1cc(N)ccc1Cl` are over 5 µM and over 15 µM.
The matching figures for `O=C(Nc1ccc(Cl)c(-c2nc3ncccc3o2)c1)c1cc([N+](=O)[O-])ccc1Cl`: over 6 µM and over 26 µM.
The corresponding values for `O=C(Nc1cccc(-c2ncc[nH]2)c1)c1cc([N+](=O)[O-])ccc1Cl` are over 8 µM and over 18 µM.
On to `Cc1ccc(-c2nc3ccccc3s2)cc1NC(=O)c1cc(F)ccc1Cl`, for which the EC50 in data set [2] is over 8 µM. The EC50 at 72 h in data set [3] was over 15 µM.
In the case of `O=C(Nc1cc(-c2nc3ccccc3s2)ccc1Br)c1cc([N+](=O)[O-])ccc1Cl`, the half-maximal effective concentration (EC50) in data set [2] was determined as 0.22 µM. The half-maximal effective concentration (EC50) at 72 h in data set [3] is over 20 µM. Besides, in data set [4], the half-life at 20 µM came to 1.7 min. Also, the solubility at 18 h in data set [5] is under 1.56 µM.
On to `COc1ccc([N+](=O)[O-])cc1C(=O)Nc1cc(-c2nc3ccccc3s2)ccc1C`, for which the EC50 in data set [2] is over 1 µM. In addition, the EC50 at 72 h in data set [3] is over 2 µM.
Turning to `O=C(Nc1cccc(-c2ncco2)c1)c1cc([N+](=O)[O-])ccc1Cl`, in data set [2], the EC50 is over 8 µM. In addition, the half-maximal effective concentration (EC50) at 72 h in data set [3] is over 18 µM.
For `Cc1ccc(-c2nc3ccccc3s2)cc1NC(=O)c1cc([N+](=O)[O-])ccc1O`, in data set [2], the EC50 was over 7 µM. Moreover, the half-maximal effective concentration (EC50) at 72 h in data set [3] was over 14 µM.
`C[S+]([O-])c1ccc(Cl)c(C(=O)Nc2cccc(-c3nc4ccccc4s3)c2)c1` (stereo not given): in data set [2], the concentration for a half-maximal effect (EC50) was over 8 µM. The 50% effective concentration (EC50) at 72 h in data set [3] is over 25 µM.
For `Cc1ccc(-c2nc3ccccc3s2)cc1NC(=O)c1cnccc1F`, in data set [2], the half-maximal effective concentration (EC50) was over 10.6 µM. Also, the half-maximal effective concentration (EC50) at 72 h in data set [3] is over 18 µM.
On to `O=C(Nc1cncc(-c2nc3ccccc3s2)c1)c1cnccc1Cl`, for which the EC50 in data set [2] is over 5 µM. For the same compound, in data set [3], the EC50 at 72 h was over 11 µM.
The corresponding values for `Cc1nc(-c2cccc(NC(=O)c3cc([N+](=O)[O-])ccc3Cl)c2)sc1C` are 2.22 µM and over 17 µM.
The matching figures for `COC(=O)c1ccc(Cl)c(C(=O)Nc2cc(-c3nc4ccccc4s3)ccc2C)c1`: over 16.1 µM and over 28 µM.
With `Cc1ccc(-c2nc3ncccc3o2)cc1NC(=O)c1cc([N+](=O)[O-])ccc1Cl`, the concentration giving a half-maximal response (EC50) in data set [2] amounted to 0.55 µM. For the same compound, the EC50 at 72 h in data set [3] is over 25 µM. For the same compound, the half-life at 20 µM in data set [4] stood at 1.2 min. The compound also yielded a solubility at 18 h in data set [5] of under 1.56 µM.
Take `Cc1ccc(-c2nc3ccccc3s2)cc1NC(=O)c1cc([N+](=O)[O-])ccc1C(F)(F)F`: the EC50 in data set [2] was over 7 µM. Also, in data set [3], the EC50 at 72 h is over 15 µM.
For `O=C(Nc1cccc(-c2nccs2)c1)c1cc([N+](=O)[O-])ccc1Cl`, in data set [2], the EC50 is over 7 µM. The 50% effective concentration (EC50) at 72 h in data set [3] is over 18 µM.
Regarding `O=C(NC1CCCC(c2nc3ccccc3s2)C1)c1cc([N+](=O)[O-])ccc1Cl` (stereo not given), the EC50 in data set [2] was over 7 µM. In data set [3], the EC50 at 72 h was over 15 µM.
As for `COc1ccncc1C(=O)Nc1cc(-c2nc3ccccc3s2)ccc1C`, the concentration for a half-maximal effect (EC50) in data set [2] was over 12 µM. Moreover, in data set [3], the 50% effective concentration (EC50) at 72 h is over 21 µM.
As for `Cc1ccc(-c2nc3ccccc3s2)cc1NC(=O)c1cnccc1Cl`, the concentration giving a half-maximal response (EC50) in data set [2] is 0.044 µM. In addition, the EC50 at 72 h in data set [3] is over 25 µM. Besides, the half-life at 20 µM in data set [4] was 12 min. Moreover, in data set [5], the solubility at 18 h is under 1 µM.
For `Cc1ccc(-c2nc3ccccc3s2)cc1NC(=O)c1cnccc1C(F)(F)F`, in data set [2], the concentration giving a half-maximal response (EC50) is over 7 µM. The EC50 at 72 h in data set [3] was over 14 µM.
The corresponding values for `Cc1ccc(-c2nc3ccccc3s2)cc1NC(=O)c1cc(C(F)(F)F)ccc1Cl` are over 6 µM and over 15 µM.
As to `O=C(Nc1cccc(-c2nc3ccccc3s2)n1)c1cc([N+](=O)[O-])ccc1Cl`, in data set [2], the concentration for a half-maximal effect (EC50) was over 7 µM. Besides, the concentration giving a half-maximal response (EC50) at 72 h in data set [3] is over 15 µM.
The corresponding values for `Cc1ccc(-c2nc3ccccc3s2)cc1NC(=O)c1cc(NC(=O)OC(C)(C)C)ccc1Cl` are over 8 µM and over 15 µM.
Regarding `CC(=O)Nc1ccc(Cl)c(C(=O)Nc2cc(-c3nc4ccccc4s3)ccc2C)c1`, in data set [2], the concentration for a half-maximal effect (EC50) is over 7 µM. For the same compound, the concentration giving a half-maximal response (EC50) at 72 h in data set [3] was over 15 µM.
With `Cc1ccc(-c2nc3ccccc3s2)cc1NC(=O)c1cc([N+](=O)[O-])ccc1Cl`, in data set [2], the 50% effective concentration (EC50) came out at 0.039 µM. Besides, in data set [3], the concentration for a half-maximal effect (EC50) at 72 h is over 25 µM. Besides, the half-life at 20 µM in data set [4] was over 240 min. Also, the solubility entry in data set [5] (buffer, pH 7.4, 18 h) is “Insoluble(Bld)”.
On to `O=C(Nc1cccc(-c2nc3ccccc3s2)c1)c1cc([N+](=O)[O-])ccc1Cl`, for which, in data set [2], the EC50 was determined as 0.1 µM. Besides, in data set [3], the EC50 at 72 h is over 15 µM. In addition, in data set [4], the half-life at 20 µM was found to be 11 min. For the same compound, in data set [5], the solubility at 18 h was under 1 µM.
Turning to `O=C(Nc1cccc(-c2nc3ccccc3s2)n1)c1cnccc1Cl`, the EC50 in data set [2] is 0.09 µM. For the same compound, in data set [3], the EC50 at 72 h was over 15 µM. Moreover, in data set [4], the half-life at 20 µM turned out to be 2 min. Also, the solubility at 18 h in data set [5] is under 1.56 µM.
On to `Cc1ccc(-c2nc3ccccc3s2)cc1NC(=O)c1cc(C(N)=O)ccc1Cl`, for which, in data set [2], the EC50 was over 11 µM. In addition, the concentration giving a half-maximal response (EC50) at 72 h in data set [3] is over 22 µM.
The matching figures for `Cc1ccc(-c2nc3ccccc3s2)cc1NC(=O)c1cc(C#N)ccc1Cl`: over 6 µM and over 15 µM.
For the compound `Cc1ccc(-c2nnn[nH]2)nc1NC(=O)c1cnccc1Cl`, the EC50 at 72 h in data set [3] was over 18 µM. Also, the result in data set [6] was inactive.
Take `Cc1ccc(-c2nc3ccccc3s2)cc1NC(=O)c1cnccc1C#N`: the EC50 in data set [2] is over 7 µM. The EC50 at 72 h in data set [3] is over 13 µM.
The corresponding values for `Cc1ccc(-c2nnn[nH]2)cc1NC(=O)c1cc([N+](=O)[O-])ccc1Cl` are over 8 µM and over 18 µM.
On to `Cc1ccc(-c2nc3ccccc3s2)cc1NC(=O)c1cnccc1O`, for which the EC50 in data set [2] was over 8 µM. In addition, the concentration for a half-maximal effect (EC50) at 72 h in data set [3] was over 14 µM.
On to `CS(=O)(=O)c1ccc(Cl)c(C(=O)Nc2cccc(-c3nc4ccccc4s3)c2)c1`, for which the EC50 in data set [2] came to 4.56 µM. The half-maximal effective concentration (EC50) at 72 h in data set [3] was over 25 µM.
`Cc1ccc(-c2nc3ccccc3s2)cc1NC(=O)c1cc(C(=O)O)ccc1Cl`: in data set [2], the EC50 was over 5 µM. Also, the concentration giving a half-maximal response (EC50) at 72 h in data set [3] was over 15 µM.
Regarding `Cc1ccc(-c2nc3ccccc3s2)cc1NC(=O)c1cc([N+](=O)[O-])ccc1F`, in data set [2], the EC50 came to 0.004 µM. Further, the concentration for a half-maximal effect (EC50) at 72 h in data set [3] is over 17 µM. The half-life at 20 µM in data set [4] was 21 min. The same compound gave a solubility at 18 h in data set [5] of under 1.56 µM.
As to `O=C(Nc1cncc(-c2nc3ccccc3s2)c1)c1cc([N+](=O)[O-])ccc1Cl`, the concentration for a half-maximal effect (EC50) in data set [2] is over 8 µM. The EC50 at 72 h in data set [3] is over 15 µM.
With `O=C(Nc1cccc(-c2nccs2)n1)c1cnccc1Cl`, the EC50 in data set [2] is over 44 µM. Moreover, the concentration giving a half-maximal response (EC50) at 72 h in data set [3] is over 18 µM.
